Reference: US20040087633A1, “Methylidene oxazolidinone compound and preparation method thereof” (Korea Institute of Science and Technology, priority 2002, published 2004)
In brackets after ≈: the same amount, converted by molar mass. Like-named read-outs stand apart in the source and are kept apart here. Each block holds one compound with its values, some of them ahead of it.

Key:
Assay in all cases: Anti-microbial activity test in vitro (agar dilution MIC)
[1] = system: E. faecium C2252; type: cell-based; details: for MIC: Enterococcus faecium, read-out: Minimum inhibition concentration (MIC)
Method: (§1) Anti-microbial activity test in vitro
(§2) Strains were cultivated for 18 hours at 37° C. in Agar Dilution method using Mueller Hinton Agar, and then plane plates inoculated with the strains by diluting them two times gradually were aligned in a row. Minimum inhibition concentration (MIC, μg/ml) for the representative compounds of the present invention, Linezolid (LZD) and vancomycin (VAN) were decided through visual observation, and the results are shown in the following tables 2 and 3.

[2] = system: E. faecalis ATCC29212; type: cell-based; details: for MIC: Enterococcus faecalis, read-out: Minimum inhibition concentration (MIC)
Method: as §1, §2

[3] = system: S. epidermidis C2235; type: cell-based; details: for MIC: Staphylococcus epidermidis, read-out: Minimum inhibition concentration (MIC)
Method: as §1, §2

[4] = system: S. pyogenes ATCC8668; type: cell-based; details: for MIC: Streptococcus pyogenes, read-out: Minimum inhibition concentration (MIC)
Method: as §1, §2

[5] = system: S. pyogenes C6003; type: cell-based; details: for MIC: Streptococcus pyogenes, read-out: Minimum inhibition concentration (MIC)
Method: as §1, §2

[6] = system: S. epidermidis ATCC12228; type: cell-based; details: for MIC: Staphylococcus epidermidis, read-out: Minimum inhibition concentration (MIC)
Method: as §1, §2

[7] = system: S. epidermidis C2230; type: cell-based; details: for MIC: Staphylococcus epidermidis, read-out: Minimum inhibition concentration (MIC)
Method: as §1, §2

[8] = system: E. faecalis C6291; type: cell-based; details: for MIC: Enterococcus faecalis, read-out: Minimum inhibition concentration (MIC)
Method: as §1, §2

[9] = system: E. faecium C6301; type: cell-based; details: for MIC: Enterococcus faecium, read-out: Minimum inhibition concentration (MIC)
Method: as §1, §2

[10] = system: E. faecalis C6288; type: cell-based; details: for MIC: Enterococcus faecalis, read-out: Minimum inhibition concentration (MIC)
Method: as §1, §2

[11] = system: S. aureus ATCC 29213; type: cell-based; details: Agar Dilution method, Mueller Hinton Agar, 18 hours at 37° C.
Method: as §1, §2

[12] = system: S. pyogenes C6012; type: cell-based; details: for MIC: Streptococcus pyogenes, read-out: Minimum inhibition concentration (MIC)
Method: as §1, §2

[13] = system: VRE C6488; type: cell-based, Enterococcus faecium; details: for MIC: Enterococcus, read-out: Minimum inhibition concentration (MIC)
Method: as §1, §2

[14] = system: VRE C6487; type: cell-based, Enterococcus faecium; details: for MIC: Enterococcus, read-out: Minimum inhibition concentration (MIC)
Method: as §1, §2

[15] = system: CRSA C6043; type: cell-based, Staphylococcus aureus; details: for MIC: Staphylococcus aureus, read-out: Minimum inhibition concentration (MIC)
Method: as §1, §2

[16] = system: MRSA C6068; type: cell-based, Staphylococcus aureus; details: for MIC: Staphylococcus aureus, read-out: Minimum inhibition concentration (MIC)
Method: as §1, §2

[17] = system: MSSA C2214; type: cell-based, Staphylococcus aureus; details: for MIC: Staphylococcus aureus, read-out: Minimum inhibition concentration (MIC)
Method: as §1, §2

[18] = system: CRSA C1062; type: cell-based, Staphylococcus aureus; details: for MIC: Staphylococcus aureus, read-out: Minimum inhibition concentration (MIC)
Method: as §1, §2

[19] = system: MRSA C5100; type: cell-based, Staphylococcus aureus; details: for MIC: Staphylococcus aureus, read-out: Minimum inhibition concentration (MIC)
Method: as §1, §2

[20] = system: MSSA C7142; type: cell-based, Staphylococcus aureus; details: for MIC: Staphylococcus aureus, read-out: Minimum inhibition concentration (MIC)
Method: as §1, §2

[21] = system: MRSA C2207; type: cell-based, Staphylococcus aureus; details: for MIC: Staphylococcus aureus, read-out: Minimum inhibition concentration (MIC)
Method: as §1, §2

[22] = E. faecium C2252, Agar Dilution method, Mueller Hinton Agar, 18 hours at 37° C.
[23] = E. faecalis ATCC29212, Agar Dilution method, Mueller Hinton Agar, 18 hours at 37° C.
[24] = S. epidermidis C2235, Agar Dilution method, Mueller Hinton Agar, 18 hours at 37° C.
[25] = S. pyogenes ATCC8668, Agar Dilution method, Mueller Hinton Agar, 18 hours at 37° C.
[26] = S. pyogenes C6003, Agar Dilution method, Mueller Hinton Agar, 18 hours at 37° C.
[27] = S. epidermidis ATCC12228, Agar Dilution method, Mueller Hinton Agar, 18 hours at 37° C.
[28] = S. epidermidis C2230, Agar Dilution method, Mueller Hinton Agar, 18 hours at 37° C.
[29] = E. faecalis C6291, Agar Dilution method, Mueller Hinton Agar, 18 hours at 37° C.
[30] = E. faecium C6301, Agar Dilution method, Mueller Hinton Agar, 18 hours at 37° C.
[31] = E. faecalis C6288, Agar Dilution method, Mueller Hinton Agar, 18 hours at 37° C.
[32] = S. pyogenes C6012, Agar Dilution method, Mueller Hinton Agar, 18 hours at 37° C.
[33] = VRE C6488, Agar Dilution method, Mueller Hinton Agar, 18 hours at 37° C.
[34] = VRE C6487, Agar Dilution method, Mueller Hinton Agar, 18 hours at 37° C.
[35] = CRSA C6043, Agar Dilution method, Mueller Hinton Agar, 18 hours at 37° C.
[36] = MRSA C6068, Agar Dilution method, Mueller Hinton Agar, 18 hours at 37° C.
[37] = MSSA C2214, Agar Dilution method, Mueller Hinton Agar, 18 hours at 37° C.
[38] = CRSA C1062, Agar Dilution method, Mueller Hinton Agar, 18 hours at 37° C.
[39] = MRSA C5100, Agar Dilution method, Mueller Hinton Agar, 18 hours at 37° C.
[40] = MSSA C7142, Agar Dilution method, Mueller Hinton Agar, 18 hours at 37° C.
[41] = MRSA C2207, Agar Dilution method, Mueller Hinton Agar, 18 hours at 37° C.

- Minimum inhibition concentration (MIC) [1, 22]: 8 mg/L (≈ 18.5 µM)
- Minimum inhibition concentration (MIC) [2, 23]: 16 mg/L (≈ 36.9 µM)
- Minimum inhibition concentration (MIC) [3, 24]: 8 mg/L (≈ 18.5 µM)
- Minimum inhibition concentration (MIC) [4, 25]: 8 mg/L (≈ 18.5 µM)
- Minimum inhibition concentration (MIC) [5, 26]: 4 mg/L (≈ 9.23 µM)
- Minimum inhibition concentration (MIC) [6, 27]: 4 mg/L (≈ 9.23 µM)
- Minimum inhibition concentration (MIC) [7, 28]: 16 mg/L (≈ 36.9 µM)
- Minimum inhibition concentration (MIC) [8, 29]: 8 mg/L (≈ 18.5 µM)
- Minimum inhibition concentration (MIC) [9, 30]: 8 mg/L (≈ 18.5 µM)
- Minimum inhibition concentration (MIC) [10, 31]: 16 mg/L (≈ 36.9 µM)
- Minimum inhibition concentration (MIC) [11]: 16 mg/L (≈ 36.9 µM)
- Minimum inhibition concentration (MIC) [12, 32]: 16 mg/L (≈ 36.9 µM)
- Minimum inhibition concentration (MIC) [13, 33]: 8 mg/L (≈ 18.5 µM)
- Minimum inhibition concentration (MIC) [14, 34]: 1 mg/L (≈ 2.31 µM)
- Minimum inhibition concentration (MIC) [15, 35]: 8 mg/L (≈ 18.5 µM)
- Minimum inhibition concentration (MIC) [16, 36]: 8 mg/L (≈ 18.5 µM)
- Minimum inhibition concentration (MIC) [17, 37]: 16 mg/L (≈ 36.9 µM)
- Minimum inhibition concentration (MIC) [18, 38]: 16 mg/L (≈ 36.9 µM)
- Minimum inhibition concentration (MIC) [19, 39]: 8 mg/L (≈ 18.5 µM)
- Minimum inhibition concentration (MIC) [20, 40]: 8 mg/L (≈ 18.5 µM)
- Minimum inhibition concentration (MIC) [21, 41]: 16 mg/L (≈ 36.9 µM)
SMILES: CCOC(=O)C(C)=C1CCN(c2ccc(N3C[C@H](CNC(C)=O)OC3=O)cc2F)CC1 [Compound 13, N-[[(5S)-3-[3-fluoro-4-(4-(1-ethoxycarbonylethylidene)-piperidinyl)phenyl]-2-oxo-5-oxazolidinyl]methyl]acetamide]

- Minimum inhibition concentration (MIC) [1, 22]: 8 mg/L (≈ 20.5 µM)
- Minimum inhibition concentration (MIC) [2, 23]: 16 mg/L (≈ 41.1 µM)
- Minimum inhibition concentration (MIC) [3, 24]: 8 mg/L (≈ 20.5 µM)
- Minimum inhibition concentration (MIC) [4, 25]: 8 mg/L (≈ 20.5 µM)
- Minimum inhibition concentration (MIC) [5, 26]: 0.2 mg/L (≈ 0.514 µM)
- Minimum inhibition concentration (MIC) [6, 27]: 1 mg/L (≈ 2.57 µM)
- Minimum inhibition concentration (MIC) [7, 28]: 8 mg/L (≈ 20.5 µM)
- Minimum inhibition concentration (MIC) [8, 29]: 16 mg/L (≈ 41.1 µM)
- Minimum inhibition concentration (MIC) [9, 30]: 8 mg/L (≈ 20.5 µM)
- Minimum inhibition concentration (MIC) [10, 31]: 16 mg/L (≈ 41.1 µM)
- Minimum inhibition concentration (MIC) [11]: 8 mg/L (≈ 20.5 µM)
- Minimum inhibition concentration (MIC) [12, 32]: 16 mg/L (≈ 41.1 µM)
- Minimum inhibition concentration (MIC) [13, 33]: 8 mg/L (≈ 20.5 µM)
- Minimum inhibition concentration (MIC) [14, 34]: 2 mg/L (≈ 5.14 µM)
- Minimum inhibition concentration (MIC) [15, 35]: 16 mg/L (≈ 41.1 µM)
- Minimum inhibition concentration (MIC) [16, 36]: 16 mg/L (≈ 41.1 µM)
- Minimum inhibition concentration (MIC) [17, 37]: 16 mg/L (≈ 41.1 µM)
- Minimum inhibition concentration (MIC) [18, 38]: 8 mg/L (≈ 20.5 µM)
- Minimum inhibition concentration (MIC) [19, 39]: 8 mg/L (≈ 20.5 µM)
- Minimum inhibition concentration (MIC) [20, 40]: 16 mg/L (≈ 41.1 µM)
- Minimum inhibition concentration (MIC) [21, 41]: 8 mg/L (≈ 20.5 µM)
SMILES: CC(=O)C=C1CCN(c2ccc(N3C[C@H](CNC(C)=O)OC3=O)cc2F)CC1 [Compound 12, N-[[(5S)-3-[3-fluoro-4-(4-methylcarbonylmethylidene-piperidinyl)phenyl]-2-oxo-5-oxazolidinyl]methyl]acetamide]

- MIC [1, 22]: 2 mg/L (≈ 5.93 µM)
- MIC [2, 23]: 4 mg/L (≈ 11.9 µM)
- MIC [3, 24]: 2 mg/L (≈ 5.93 µM)
- MIC [4, 25]: 0.5 mg/L (≈ 1.48 µM)
- MIC [5, 26]: 2 mg/L (≈ 5.93 µM)
- MIC [6, 27]: 0.5 mg/L (≈ 1.48 µM)
- MIC [7, 28]: 2 mg/L (≈ 5.93 µM)
- MIC [8, 29]: 2 mg/L (≈ 5.93 µM)
- MIC [9, 30]: 2 mg/L (≈ 5.93 µM)
- MIC [10, 31]: 2 mg/L (≈ 5.93 µM)
- MIC [12, 32]: 0.5 mg/L (≈ 1.48 µM)
- MIC [13, 33]: 2 mg/L (≈ 5.93 µM)
- MIC [14, 34]: 2 mg/L (≈ 5.93 µM)
- MIC [15, 35]: 2 mg/L (≈ 5.93 µM)
- MIC [16, 36]: 2 mg/L (≈ 5.93 µM)
- MIC [17, 37]: 4 mg/L (≈ 11.9 µM)
- MIC [18, 38]: 4 mg/L (≈ 11.9 µM)
- MIC [19, 39]: 2 mg/L (≈ 5.93 µM)
- MIC [20, 40]: 4 mg/L (≈ 11.9 µM)
- MIC [21, 41]: 4 mg/L (≈ 11.9 µM)
SMILES: CC(=O)NC[C@H]1CN(c2ccc(N3CCOCC3)c(F)c2)C(=O)O1 [LZD, Linezolid, reference compound]

SMILES: CN[C@H](CC(C)C)C(=O)N[C@H]1C(=O)N[C@@H](CC(N)=O)C(=O)N[C@H]2C(=O)N[C@H]3C(=O)N[C@H](C(=O)N[C@H](C(=O)O)c4cc(O)cc(O)c4-c4cc3ccc4O)[C@H](O)c3ccc(c(Cl)c3)Oc3cc2cc(c3O[C@@H]2O[C@H](CO)[C@@H](O)[C@H](O)[C@H]2O[C@H]2C[C@](C)(N)[C@H](O)[C@H](C)O2)Oc2ccc(cc2Cl)[C@H]1O [VAN, vancomycin, reference compound]
- MIC ([1]; C2252, 18 h): 1 mg/L (≈ 0.69 µM)
- MIC ([2]; ATCC29212, 18 h): 4 mg/L (≈ 2.76 µM)
- MIC ([3]; C2235, 18 h): 2 mg/L (≈ 1.38 µM)
- MIC ([4]; ATCC8668, 18 h): 0.12 mg/L (≈ 0.0828 µM)
- MIC ([5]; C6003, 18 h): 4 mg/L (≈ 2.76 µM)
- MIC ([6]; ATCC12228, 18 h): 1 mg/L (≈ 0.69 µM)
- MIC ([7]; C2230, 18 h): 2 mg/L (≈ 1.38 µM)
- MIC ([8]; C6291, 18 h): 2 mg/L (≈ 1.38 µM)
- MIC ([9]; C6301, 18 h): 1 mg/L (≈ 0.69 µM)
- MIC ([10]; C6288, 18 h): 2 mg/L (≈ 1.38 µM)
- MIC ([12]; C6012, 18 h): 0.5 mg/L (≈ 0.345 µM)
- MIC ([13]; VRE, 18 h): > 32 mg/L
- MIC ([14]; VRE, 18 h): > 32 mg/L
- MIC ([15]; 18 h): 2 mg/L (≈ 1.38 µM)
- MIC ([16]; MRSA, 18 h): 1 mg/L (≈ 0.69 µM)
- MIC ([17]; MSSA, 18 h): 1 mg/L (≈ 0.69 µM)
- MIC ([18]; 18 h): 2 mg/L (≈ 1.38 µM)
- MIC ([19]; MRSA, 18 h): 2 mg/L (≈ 1.38 µM)
- MIC ([20]; MSSA, 18 h): 2 mg/L (≈ 1.38 µM)
- MIC ([21]; MRSA, 18 h): 1 mg/L (≈ 0.69 µM)
